Read-outs that look alike come from different tables or passages of the source.
Assays:
[1] = Metabolic stability assay, human liver microsomes; type: in vitro ADME; settings: human liver microsomes 0.5 mg/mL, 1 µM compound, read-out: Liver microsomal stability (T½ /min) human
Procedure: (§1) Metabolic stability assay: A warm incubation for metabolic stability was performed with a system of 150 µL of liver microsomes (final concentration 0.5 mg/mL) containing NADPH (final concentration 1 mM), 1 µM of the test compound and positive control midazolam or negative control atenolol, and the reaction was terminated with acetonitrile containing tinidazole at 0 min, 5 min, 10 min and 30 min, respectively. The reaction was vortexed for 10 min and centrifuged at 15000 rmp for 10 min, and 50 µL of supernatant was taken into the 96-well plate for sampling. The metabolic stability of the compound was calculated by measuring the relative reduction of the drugs.

[2] = Metabolic stability assay, mouse liver microsomes; type: in vitro ADME; settings: mouse liver microsomes 0.5 mg/mL, 1 µM compound, read-out: Liver microsomal stability (T½ /min) Mouse
Procedure: as §1

KRAS^G12C/SOS1 = target: T1, KRAS^G12C/SOS1 (Homo sapiens, UniProt P01116, G12C); experiment: KRAS^G12C/SOS1 protein-protein interaction Binding assay (CisBio kit); settings: class symbols
T1 construct: purchased CisBio
Procedure: CisBio’s KRAS^G12C/SOS1 kit was used to test the efficacy of the compound on inhibiting the protein-protein interaction between SOS1 and KRAS^G12Cby Binding assay.Results were expressed as IC50values.
Test methods: (1) the test compound was tested at a concentration of 1000 nM. Diluted to 3-fold diluted compound of a 200-fold final concentration of 100% DMSO solution in a 384-well plate at 10 concentrations. 50 nL of 200-fold final concentration of compound was transferred to the destination plate 384 well plate using a dispenser Echo 550.50 nL of 100% DMSO was added to the negative control wells and positive control wells; (2) 4-fold final concentration of Tag1 SOS1 solution was prepared using Diluent buffer; (3) 2.5 µL of 4-fold final concentration of Tag1 SOS1 solution was added to the 384-well plate; (4) 4-fold final concentration of Tag2 KRAS^G12C solution was prepared using Diluent buffer; (5) 2.5 µL of 4-fold final concentration of Tag2 KRAS^G12C solution was added to compound wells and positive control wells, respectively; 2.5 µL of diluent buffer was added to negative control wells; (6) the 384-well plate was centrifuged at 1000 rpm for 30 seconds, shaken and mixed, and incubated at room temperature for 15 min; (7) 1-fold final concentration of Anti Tag1 TB3+ solution and 1-fold final concentration of Anti Tag2 XL665 solution were prepared with Detection buffer, and 5 µL of the mixture was added to each well after mixing the two solutions; (8) the 384-well plate was centrifuged at 1000 rpm for 30 seconds, shaken and mixed, and incubated at room temperature for 120 minutes; (9) the Envision enzyme marker was used to read
Em665/620; (10) data analysis, calculation formula; where Min signal is the mean value of negative control wells, Max signal is the mean value of positive control wells.The log value of concentration was used as the X-axis and the percentage inhibition as the Y-axis to fit the quantitative efficacy curve using the log(inhibitor) vs. response Variable slope of the quantitative efficacy curve of the analytical software GraphPad Prism 5 to derive the IC50 value of each compound on the enzyme activity.The fitting formula was: Y=Bottom+(Top Bottom)/(1+10^A((LogIC50X)^∗ HillSlope)).

[3] = Metabolic stability assay, monkey liver microsomes; type: in vitro ADME; settings: monkey liver microsomes 0.5 mg/mL, 1 µM compound, read-out: Liver microsomal stability (T½ /min) monkey
Procedure: as §1

[4] = Metabolic stability assay, rat liver microsomes; type: in vitro ADME; settings: rat liver microsomes 0.5 mg/mL, 1 µM compound, read-out: Liver microsomal stability (T½ /min) Rat
Procedure: as §1

[5] = test system: phosphorylated ERK levels of MiaPaca-2; experiment: ERK phosphorylation (western blot), MiaPaca-2; type: cell-based; settings: Homo sapiens, MIA PaCa-2, 24 h
Procedure: (§2) Test method 3 (ERK phosphorylation): Miapaca-2 or H358 cells were inoculated at certain concentrations in 96-well plates and incubated overnight at 37° C., 5% CO2 in a cell culture incubator, and serial dilutions of the test compound (5 concentrations, 3-fold dilution) were added to the plates the next day for 24 h (Miapaca-2) or 3 h (H358), then lysis solution containing protease and phosphatase inhibitor were added to lyse the cells to extract proteins and western blot method was used to detect the level of p-ERK.

[6] = test system: NCI-H358 (lung cancer) cells; experiment: Proliferation test method 1 (2D, MTT), NCI-H358; type: cell-based; settings: Homo sapiens, 5-7 days, read-out: IC50 proliferation inhibitory activity against NCI-H358
Procedure: (§3) Test method 1 (2D):NCI-H358 (lung cancer) and MiaPaca-2 cells (pancreatic cancer) cells (100 µL/well, 20,000 cells/mL) were inoculated in 96-well culture plates supplemented with 10% fetal bovine serum and 1% penicillin/streptomycin sulfate, respectively.Using 0.5% dimethyl sulfoxide as a blank control, cells were treated with a solution of the compound to be tested at a starting concentration of 10 µM, tripled diluted testing solution of the compound in eight gradients were used to treat cells, and then incubated in a 5% CO2 incubator for a certain period of time (5-7 days).At the end of incubation, 10 µL of MTT stock solution (5 mg/mL) was added to each well.The culture plates were incubated at 37° C. for 4 h and then the medium was removed.Dimethyl sulfoxide (100 µL) was added to each well and then shaken sufficiently. The absorbance of the product formazanwas measured at 570 nm on the Thermo Scientific Varioskan Flash multimode reader.IC50 values were obtained by fitting dose-response data into a three-parameter nonlinear regression model using GraphPad Prism 6.0 software.

[7] = test system: phosphorylated ERK levels of NCI-H358; experiment: ERK phosphorylation (western blot), H358; type: cell-based; settings: Homo sapiens, 3 h
Procedure: as §2

NCI-H358 cells = experiment: Proliferation test method 2 (3D, Cell Titer Glo 3D), NCI-H358; type: cell-based; settings: Homo sapiens, NCI-H358, 96 h, read-out: IC50 cell proliferation inhibitory activity against NCI-H358
Procedure: (§4) Test method 2 (3D): The tumor cells in the logarithmic growth phase were diluted with culture solution to a certain concentration and inoculated on the 96-well plate on the ultra-low attachment surface, and the culture medium was 80 µL/well. Cells were incubated overnight at 37° C. in a humidity chamber. On the second day, a series of diluted test compounds (10 concentrations, 3 times dilution) were added to the plate, 20 µL/well, incubated in an incubator for 96h.The plates are removed and placed at room temperature and incubated with an equal volume of Cell Titer Glo®3D reagent for 1 h. The signal is detected by the En Vision™ plate reader. […] A four-parameter nonlinear regression curve was fitted to the percent inhibition for each concentration of the compound and the IC50 was calculated.

[8] = test system: MiaPaca-2 cells (pancreatic cancer); experiment: Proliferation test method 1 (2D, MTT), MiaPaca-2; type: cell-based; settings: 5-7 days, read-out: IC50/nM proliferation inhibitory activity on MiaPaca-2 cells
Procedure: as §3

MiaPaca-2 cells = experiment: Proliferation test method 2 (3D, Cell Titer Glo 3D), MiaPaca-2; type: cell-based; settings: Homo sapiens, MIA PaCa-2, 96 h, read-out: IC50 cell proliferation inhibitory activity against MiaPaca-2
Procedure: as §4

T1 sequence (P01116 1-188 isoform P01116-2 G12C): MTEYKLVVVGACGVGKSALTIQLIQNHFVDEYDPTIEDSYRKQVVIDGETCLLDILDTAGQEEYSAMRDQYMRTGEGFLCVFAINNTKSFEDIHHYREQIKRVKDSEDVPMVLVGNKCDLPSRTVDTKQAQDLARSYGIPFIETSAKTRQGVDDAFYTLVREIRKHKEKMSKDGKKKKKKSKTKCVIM

Row | half-life at 1 µM [1] | half-life at 1 µM [2] | IC50 (KRAS^G12C/SOS1) | half-life at 1 µM [3] | half-life at 1 µM [4] | IC50 [5] | IC50 [6] | IC50 [7] | IC50 (NCI-H358 cells) | IC50 ([8]; 2D) | IC50 ([8]; Homo sapiens, MIA PaCa-2, 2D) | IC50 (MiaPaca-2 cells) | Compound
1 | 54 min | 47 min | 50 to 200 nM | 42 min | 41 min | – | – | – | – | – | – | – | C=CC(=O)N1CC2C(=O)N(C)c3cnc4c(F)c(-c5c(O)cccc5F)c(Cl)cc4c3N2CC1C (single isomer, unassigned) [Comparative Compound 2-1, reference compound]
2 | > 30 min | – | < 50 nM | – | – | < 500 nM | < 100 nM | < 500 nM | – | – | – | – | C=CC(=O)N1CCN(c2nc(OC[C@@H]3CCCN3C)nc3c(F)c(-c4ccc(F)c5sc(N)nc45)c(Cl)cc23)CC1 [Example 1, 1-(4-(7-(2-Amino-7-Fluorobenzo [d] Thiazol-4-yl) -6-Chloro-8-Fluoro-2-(((S)-1-Methylpyrrolin-2-yl) Methoxy) Quinazolin-4-yl) Piperazin-1-Yl) Prop-2-En-1-One]
3 | – | – | 50 to 200 nM | – | – | < 500 nM | < 100 nM | < 500 nM | < 200 nM | 57.2 nM | < 100 nM | < 200 nM | C=CC(=O)N1CCN(c2c(C#N)cnc3c(F)c(-c4ccc(F)c5sc(N)nc45)c(Cl)cc23)[C@@H](C)C1 [Example 10, 4-((S)-4-Acryloyl-2-Methylpiperazin-1-yl)-7-(2-Amino-7-Fluorobenzo[d]Thiazol-4-yl)-6-Chloro-8-Fluoroquinolin-3-Cyano]
4 | > 30 min | > 30 min | 50 to 200 nM | > 30 min | – | – | – | – | – | – | 0.9 nM | – | C=C(F)C(=O)N1CCN(c2c(C#N)c(OC[C@@H]3CCCN3C)nc3c(F)c(-c4ccc(F)c5sc(N)nc45)c(Cl)cc23)CC1 [Example 14]
5 | – | > 30 min | < 50 nM | > 30 min | > 30 min | < 500 nM | < 100 nM | < 500 nM | < 200 nM | – | – | < 200 nM | C=CC(=O)N1CCN(c2c(C#N)c(OCCN(C)C)nc3c(F)c(-c4ccc(F)c5sc(N)nc45)c(Cl)cc23)CC1 [Example 20, 4-(4-Acryloyl Piperazin-1-yl)-7-(2-Amino-7-Fluorobenzo [d] Thiazol-4-yl) -6-Chloro-2-(2-(Dimethylamino) Ethoxy)-8-Fluoroquinolin-3 -Cyano]
6 | – | – | < 50 nM | > 30 min | > 30 min | – | – | – | – | – | 1.2 nM | – | C=CC(=O)N1CCN(c2nc(OC[C@@H]3CCCN3C)nc3c(F)c(-c4ccc(F)c5sc(N)nc45)c(Cl)cc23)[C@@H](C)C1 [Example 23, 1-((3S)-4-(7-(2-Amino-7-Fluorobenzo [d]thiazol-4-yl) -6-Chloro-8-Fluoro-2-(((S)-1-Methylpyrrolin-2-yl) Methoxy) Quinazolin-4-yl)-3-Methylpiperazin-1-yl) Prop-2-En-1-One]

From US20230174526A1, “BENZOTHIAZOLYL BIARYL COMPOUND, AND PREPARATION METHOD AND USE” (SHANGHAI RINGENE BIOPHARMA CO., LTD., priority 2020, published 2023)
